Measured values as given in patent publication US20250376445A1, “COMPOUNDS AND METHODS FOR YAP/TEAD MODULATION AND INDICATIONS THEREFOR” (OPNA BIO SA, priority 2023, published 2025).

These molecules were tested on TEAD-dependent transcription (assay: TEAD-dependent transcription cell-based reporter assay (MSTO-211H+12XGTIIC luciferase)). Details: Homo sapiens; MSTO-211H+12XGTIIC reporter cells, 24 hours compound incubation, luminescence normalized to viability; read-out: MSTO-211H GMean IC50 (uM) Cell Assay Reporter Cell Variant: TEAD.
Parameters: species or system human
From the text: The human mesothelioma cell line MSTO-211H was stably transfected with a pGL4.21 plasmid containing a synthetic promoter with 12 copies of the GTIIC TEAD response element that drives the expression of a luciferase reporter gene^1 using Lipofectamine transfection reagent (Thermo Fisher). Transfected cells were selected using puromycin and single cell clones expressing this construct (referred to as MSTO-211H+12XGTIIC) were generated by limiting dilution. MSTO-211H cells was characterized by genetic alterations in key components of the Hippo pathway^2, resulting in up-regulation of YAP/TEAD-mediated transcription. […] To evaluate TEAD inhibitors, the MSTO-211H+12XGTIIC cell line was seeded in a 96-well plate in 50 μL of culture media at 1×10^4 cells per well and incubated at 37° C. overnight. Serial dilutions of compounds (in total volume of 50 μL of culture media) were added to the cells and incubated at 37° C. for 24 hours. Each plate included cells treated with DMSO as high controls and cells treated with 20 μM of the reference compound K-975 (a known TEAD inhibitor)^3 as low controls. Cell viability was assayed by the addition of 25 μL of CellTiter-Fluor reagent (Promega) followed by a 30-minute incubation at 37° C. and quantification of the fluorescence signal (Ex400/Em505). Subsequently, luciferase expression was assayed by the addition of 25 μL of ONE-Glo reagent (Promega) followed by a 10-minute incubation at room temperature and quantification of the luminescence signal. The luminescence signal was normalized to the fluorescence signal to correct for any loss in cell viability over the 24-hour compound incubation period. The percentage of inhibition of normalized luminescence signal, indicative of compound-mediated inhibition of TEAD-dependent transcription, at individual compound concentrations relative to high and low controls was calculated. The data were analyzed by using nonlinear regression to generate IC50 values for individual compounds.
O=C(c1ccc(C(F)(F)F)cc1)c1cccc2c1CCN(C(=O)Cc1c[nH]cn1)C2 [O-0047, 2-(1H-imidazol-4-yl)-1-(5-(4-(trifluoromethyl)benzoyl)-3,4-dihydroisoquinolin-2(1H)-yl)ethan-1-one] showed an IC50 of 0.001 to 10 µM.
For CS(=O)(=O)c1nc(C(=O)N2CCc3ccc(C(F)(F)c4ccc(C(F)(F)F)nc4)cc3C2)c[nH]1 [O-0061, (7-(difluoro(6-(trifluoromethyl)pyridin-3-yl)methyl)-3,4-dihydroisoquinolin-2(1H)-yl)(2-(methylsulfonyl)-1H-imidazol-4-yl)methanone], the IC50 was 0.001 to 10 µM.
O=C(CCS(=O)(=O)C(F)(F)F)N1CCc2cc(-c3ccc(C(F)(F)F)cc3)ccc2C1 [O-0128, 1-(6-(4-(trifluoromethyl)phenyl)-3,4-dihydroisoquinolin-2(1H)-yl)-3-((trifluoromethyl)sulfonyl)propan-1-one] gave an IC50 of 0.001 to 10 µM.
C=CS(=O)(=O)N1CCc2ccc(-c3ccc(C(F)(F)F)cc3)cc2C1 [O-0114, 7-(4-(trifluoromethyl)phenyl)-2-(vinylsulfonyl)-1,2,3,4-tetrahydroisoquinoline] showed an IC50 of 0.001 to 10 µM.
CS(=O)(=O)c1nc(C(=O)N2CCc3c(cccc3C(F)c3ccc(C(F)(F)F)cc3)C2)c[nH]1 (stereo not drawn) [O-0054, (5-(fluoro(4-(trifluoromethyl)phenyl)methyl)-3,4-dihydroisoquinolin-2(1H)-yl)(2-(methylsulfonyl)-1H-imidazol-4-yl)methanone] was tested, and the IC50 was 0.001 to 10 µM.
With CS(=O)(=O)c1nc(C(=O)N2CCc3cc(-c4ccc(C(F)(F)F)cc4)ccc3C2)c[nH]1 [O-0190, (2-(methylsulfonyl)-1H-imidazol-4-yl)(6-(4-(trifluoromethyl)phenyl)-3,4-dihydroisoquinolin-2(1H)-yl)methanone] the IC50 was 0.001 to 10 µM.
O=C(CCS(=O)(=O)C(F)(F)F)N1CCc2ccc(C(F)c3ccc(C(F)(F)F)nc3)cc2C1 (stereo not drawn) [O-0063, 1-(7-(fluoro(6-(trifluoromethyl)pyridin-3-yl)methyl)-3,4-dihydroisoquinolin-2(1H)-yl)-3-((trifluoromethyl)sulfonyl)propan-1-one] gave an IC50 of 0.001 to 10 µM.
With O=C(Cc1c[nH]cn1)N1CCc2c(cccc2C(F)c2ccc(C(F)(F)F)cc2)C1 (stereo not drawn) [O-0068, 1-(5-(fluoro(4-(trifluoromethyl)phenyl)methyl)-3,4-dihydroisoquinolin-2(1H)-yl)-2-(1H-imidazol-4-yl)ethan-1-one] the IC50 was 0.001 to 10 µM.
Molecule O=C(c1ccc(C(F)(F)F)cc1)c1cccc2c1CCN(C(=O)c1c[nH]c(C(F)(F)F)n1)C2 [O-0037, (2-(trifluoromethyl)-1H-imidazol-4-yl)(5-(4-(trifluoromethyl)benzoyl)-3,4-dihydroisoquinolin-2(1H)-yl)methanone] has an IC50 of 0.001 to 10 µM.
O=C(CCc1cnc[nH]1)N1CCc2ccc(C(F)(F)c3ccc(C(F)(F)F)nc3)cc2C1 [O-0059, 1-(7-(difluoro(6-(trifluoromethyl)pyridin-3-yl)methyl)-3,4-dihydroisoquinolin-2(1H)-yl)-3-(1H-imidazol-5-yl)propan-1-one] was tested, and the IC50 was 0.001 to 10 µM.
CS(=O)(=O)c1nc(C(=O)N2CCc3c(cccc3C(=O)c3ccc(C(F)(F)F)cc3)C2)c[nH]1 [O-0038, (2-(methylsulfonyl)-1H-imidazol-4-yl)(5-(4-(trifluoromethyl)benzoyl)-3,4-dihydroisoquinolin-2(1H)-yl)methanone] was tested, and the IC50 was 0.001 to 10 µM.
O=C(c1ccc(C(F)(F)F)cc1)c1cccc2c1CCN(C(=O)CCc1cnc[nH]1)C2 [O-0048, 3-(1H-imidazol-5-yl)-1-(5-(4-(trifluoromethyl)benzoyl)-3,4-dihydroisoquinolin-2(1H)-yl)propan-1-one] was tested, and the IC50 was 0.001 to 10 µM.
In the case of O=C(CCS(=O)(=O)C(F)(F)F)N1CCc2ccc(C(F)(F)c3ccc(C(F)(F)F)nc3)cc2C1 [O-0062, 1-(7-(difluoro(6-(trifluoromethyl)pyridin-3-yl)methyl)-3,4-dihydroisoquinolin-2(1H)-yl)-3-((trifluoromethyl)sulfonyl)propan-1-one], the IC50 is reported as 0.001 to 10 µM.
Work on O=C(CCS(=O)(=O)C(F)(F)F)N1CCc2c(cccc2C(O)c2ccc(C(F)(F)F)cc2)C1 (stereo not drawn) [O-0004, 1-(5-(hydroxy(4-(trifluoromethyl)phenyl)methyl)-3,4-dihydroisoquinolin-2(1H)-yl)-3-((trifluoromethyl)sulfonyl)propan-1-one] yielded an IC50 of 0.001 to 10 µM.
For O=C(c1ccc(C(F)(F)F)cc1)c1cccc2c1CCN(C(=O)c1ccc3nc[nH]c3c1)C2 [O-0074, (2-(1H-benzo[d]imidazole-6-carbonyl)-1,2,3,4-tetrahydroisoquinolin-5-yl)(4-(trifluoromethyl)phenyl)methanone], the IC50 was 0.001 to 10 µM.
In the case of O=C(c1c[nH]c(C(F)(F)F)n1)N1CCc2c(cccc2-c2ccc(C(F)(F)F)cc2)C1 [O-0192, (2-(trifluoromethyl)-1H-imidazol-4-yl)(5-(4-(trifluoromethyl)phenyl)-3,4-dihydroisoquinolin-2(1H)-yl)methanone], the IC50 is reported as > 100 µM.
Work on C[C@H](N)C(=O)N1CCc2c(cccc2-c2ccc(C(F)(F)F)cc2)C1 [O-0194, (S)-2-amino-1-(5-(4-(trifluoromethyl)phenyl)-3,4-dihydroisoquinolin-2(1H)-yl)propan-1-one] yielded an IC50 of 0.001 to 10 µM.
Work on CS(=O)(=O)CCC(=O)N1CCc2c(cccc2C(=O)c2ccc(C(F)(F)F)cc2)C1 [O-0081, 3-(methylsulfonyl)-1-(5-(4-(trifluoromethyl)benzoyl)-3,4-dihydroisoquinolin-2(1H)-yl)propan-1-one] yielded an IC50 of 0.001 to 10 µM.
Work on CS(=O)(=O)c1nc(C(=O)N2CCc3c(cccc3-c3ccc(C(F)(F)F)cc3)C2)c[nH]1 [O-0193, (2-(methylsulfonyl)-1H-imidazol-4-yl)(5-(4-(trifluoromethyl)phenyl)-3,4-dihydroisoquinolin-2(1H)-yl)methanone] yielded an IC50 of 10 to 100 µM.
O=C(c1ccc(C(F)(F)F)cc1)c1cccc2c1CCN(C(=O)Cc1ncc[nH]1)C2 [O-0071, 2-(1H-imidazol-2-yl)-1-(5-(4-(trifluoromethyl)benzoyl)-3,4-dihydroisoquinolin-2(1H)-yl)ethan-1-one] showed an IC50 of 0.001 to 10 µM.
With C=CC(=O)N1CCc2ccc(-c3ccc(C(F)(F)F)cc3)cc2C1 [O-0113, 1-(7-(4-(trifluoromethyl)phenyl)-3,4-dihydroisoquinolin-2(1H)-yl)prop-2-en-1-one] the IC50 was 0.001 to 10 µM.
For C[C@@H](Nc1ccccn1)C(=O)N1CCc2c(cccc2-c2ccc(C(F)(F)F)cc2)C1 [O-0131, (R)-2-(pyridin-2-ylamino)-1-(5-(4-(trifluoromethyl)phenyl)-3,4-dihydroisoquinolin-2(1H)-yl)propan-1-one], the IC50 was 0.001 to 10 µM.
Nc1nc2ccc(C(=O)N3CCc4c(cccc4C(=O)c4ccc(C(F)(F)F)cc4)C3)cc2[nH]1 [O-0069, (2-amino-1H-benzo[d]imidazol-6-yl)(5-(4-(trifluoromethyl)benzoyl)-3,4-dihydroisoquinolin-2(1H)-yl)methanone] gave an IC50 of 0.001 to 10 µM.
Molecule C[C@@H](NS(C)(=O)=O)C(=O)N1CCc2c(cccc2-c2ccc(C(F)(F)F)cc2)C1 [O-0185, (R)-N-(1-oxo-1-(5-(4-(trifluoromethyl)phenyl)-3,4-dihydroisoquinolin-2(1H)-yl)propan-2-yl)methanesulfonamide] has an IC50 of 0.001 to 10 µM.
With CS(=O)(=O)c1nccc(C(=O)N2CCc3c(cccc3C(=O)c3ccc(C(F)(F)F)cc3)C2)n1 [O-0033, (2-(methylsulfonyl)pyrimidin-4-yl)(5-(4-(trifluoromethyl)benzoyl)-3,4-dihydroisoquinolin-2(1H)-yl)methanone] the IC50 was 0.001 to 10 µM.
With O=C(c1ccc(C(F)(F)F)cc1)c1cccc2c1CCN(C(=O)CCS(=O)(=O)C(F)(F)F)C2 [O-0005, 1-(5-(4-(trifluoromethyl)benzoyl)-3,4-dihydroisoquinolin-2(1H)-yl)-3-((trifluoromethyl)sulfonyl)propan-1-one] the IC50 was 0.001 to 10 µM.
COC(c1ccc(C(F)(F)F)cc1)c1cccc2c1CCN(C(=O)CCS(C)(=O)=O)C2 (stereo not drawn) [O-0078, 1-(5-(methoxy(4-(trifluoromethyl)phenyl)methyl)-3,4-dihydroisoquinolin-2(1H)-yl)-3-(methylsulfonyl)propan-1-one] was tested, and the IC50 was 0.001 to 10 µM.
For O=C(c1c[nH]c(C(F)(F)F)n1)N1CCc2cc(-c3ccc(C(F)(F)F)cc3)ccc2C1 [O-0191, (2-(trifluoromethyl)-1H-imidazol-4-yl)(6-(4-(trifluoromethyl)phenyl)-3,4-dihydroisoquinolin-2(1H)-yl)methanone], the IC50 was 0.001 to 10 µM.
Work on CC(C)C[C@@H](NS(C)(=O)=O)C(=O)N1CCc2c(cccc2-c2ccc(C(F)(F)F)cc2)C1 [O-0139, (R)-N-(4-methyl-1-oxo-1-(5-(4-(trifluoromethyl)phenyl)-3,4-dihydroisoquinolin-2(1H)-yl)pentan-2-yl)methanesulfonamide] yielded an IC50 of 0.001 to 10 µM.
C[C@@H](N)C(=O)N1CCc2ccc(-c3ccc(C(F)(F)F)cc3)cc2C1 [O-0187, (R)-2-amino-1-(7-(4-(trifluoromethyl)phenyl)-3,4-dihydroisoquinolin-2(1H)-yl)propan-1-one] gave an IC50 of 0.001 to 10 µM.
